Entries after “also recorded” stand apart in the source; their conditions may differ. Where a SMILES comes first, the peptide text is derived from it. [ ]: non-standard residue; d: D form. The star is where a group is joined. Hexanoyl = CCCCCC(=O)*; Ahx = NCCCCCC(=O)O
How the values were obtained:
c-Met receptor = assay: c-Met phosphorylation in acute adult hippocampal slices; format: cell-based, rat; settings: 30 minutes
Excerpt: Adult Sprague-Dawley rats (250 g+) obtained from Harlan Laboratories (Ca, USA) were anesthetized with isofluorane (Vet One™, MWI, Meridian, Id., USA) and decapitated. The brain was rapidly removed and placed into ice-chilled artificial cerebrospinal fluid (aCSF) for approximately 30 s. Both hemispheres were separated by a mid-saggital cut and both hippocampi removed. Slices were sectioned cross- and length-wise (400 μm) to ensure penetrability of the drug, using a McIlwain tissue chopper (Brinkmann, Gomshall, UK) and transferred to a gassed (95% O2/5% CO2) incubation chamber containing aCSF for 90 minutes at room temperature. Slices were transferred to fresh tubes, aCSF was removed by careful suctioning and replaced with aCSF containing vehicle (aCSF+aCSF), 100 ng/ml with carrier free adult recombinant Hepatocyte Growth Factor (HGF) (R and D Systems, MN, USA) in aCSF, 10^−10 M Hinge (Harding lab), […], 10^−10 M Dihexa (Harding lab) in aCSF, 10^−12 M Dihexa in aCSF or 50 ng/ml HGF+10^−12 M Dihexa in aCSF for 30 minutes at 37° C. with gentle rocking. aCSF was removed and the slices were lysed using RIPA buffer (Upstate/Milipore, Billerica, Mass.) and inhibitor Cocktails I and II (Sigma, St. Louis, Mo.), sonicated on ice and clarified by centrifugation for 30 minutes, 13,000 rpm at 4° C. The supernatant was removed from the pellet and stored at −80° C. or processed immediately for gel electrophoresis.
Protein concentration of the samples was quantified using the BCA method (Pierce, Rockford, Ill.) following the manufacturers protocol. Samples were added to SDS-PAGE buffer and boiled for 10 min. before loading onto a 4-12% Bis-Tris pre-cast gel (Invitrogen, Carlsbad, Calif.) for electrophoresis. Proteins were transferred onto PVDF membranes (Bio Rad, Hercules, Calif.) and blocked with AquaBlock™ (New England Biolabs, Ipswich, Mass.) for 1 hour at room temperature (RT). Primary antibody incubation was done in AquaBlock™ with rabbit anti-Met and […] phospho-Met (Tyr1234/1235) (1:1000, Cell Signaling Technology, Danvers, Mass.) overnight at 4° C. Alternating washes were done with PBS and PBST. Secondary antibody (IRDye) (Rockland, Gilbertsville, Pa.) incubations were done in AquaBlock™ for one hour at RT. Blots were imaged using LI-COR Odyssey Infrared Imaging System (LI-COR Biosciences, Lincoln, Nebr.).

hippocampal neurons [1] = assay: Protection of hippocampal neurons from growth factor deprivation; format: cell-based; settings: starved 72 hrs, +/− HGF sub-threshold
Description: FIG. 46. […] Dissociated hippocampal neurons were starved for 72 hrs+/−HGF at sub-threshold concentrations […] and or Dihexa at 2 different concentrations 10^−8M and 10^−8M. (**p<0.001.*** p<0.000I; Mean+/−SEM).

HGF = target: T1, HGF (Homo sapiens, UniProt P14210); assay: HGF dimerization; format: biochemical; settings: Dihexa, 30 minutes in the presence of heparin
T1 construct: purchased R&D Systems (Minneapolis, Minn.)
Description: HGF dimerization was assessed using PAGE followed by silver staining (Kawas et al., 2011). Human HGF at a concentration of 0.08 ng/μl with or without 6-AH analogs was incubated with heparin at a final concentration of 5 μg/ml. Loading buffer was then added to each sample and the mixture separated by native PAGE using gradient Criterion XT precast gels (4-12% Bis-Tris; Biorad Laboratories, Hercules, Calif.). Next the gel was silver stained for the detection of the HGF monomers and dimers. Bands were quantitated from digital images using a UVP phosphoimager (Upland, Calif.).

[2] = Microsomal metabolism, rat liver microsomes; format: in vitro ADME; settings: pooled rat liver microsomes, n=3
hippocampal neurons [3] = assay: Protection of hippocampal neurons from oxidative stress (H2O2); format: cell-based; settings: 100 μM H2O2, 24 hrs, +/− HGF sub-threshold
Description: FIG. 47. […] Dissociated hippocampal neurons were treated with 100 μM H2O2 for 24 hrs+/−HGF at sub-threshold concentrations […] and or Dihexa at 2 different concentrations 10^−8M and 10^−8M. (+p<0.05, ++p<0.0I; Mean+/−SEM).

[4] = Brain uptake of 3H-dihexa after carotid infusion; format: in vivo, rat; settings: 30 minutes after infusion
Description: FIG. 32. […] Rats fitted with a carotid cannula were anesthetized and infused with 0.5 ml of isotonic saline containing 10 μCi of ^3H-dihexa and 2 μCi ^14C-Inulin, a vascular marker. Thirty minutes after infusion the rats were decapitated, the brains removed, and various brain regions dissected. The tissues were then weighed and solubilized with NCS, an organic protein solubilizing agent, and 10 ml of scintillation was added. Samples were counted with a scintillation counter using two different windows to quantitate both ^3H and ^14C counts. ^3H/^14C ratios were determined so that blood derived dihexa contamination of tissues could be determined. […] The average ^3H/^14C for blood was 1687. Mean+/−S.E.M.: n=4.

Blood stability studies = format: in vitro ADME, rat; settings: data not shown
scopolamine treated rats = assay: Morris water maze, scopolamine amnesia model; format: in vivo, rat
6-OHDA rat = assay: 6-OHDA lesioned rat, motor tests; format: in vivo
Description: FIG. 48. Dihexa restores performance in the rope hang test. After 2 weeks of 6-OHDA lesion, rats were treated with either 0.5 mg/kg or equivalent volumes of the vehicle ip.
FIG. 49. […] Baseline was calculated from 4 naïve animals to get the pre-op baseline for normal un-lesioned animals. 2 animals were lesioned with 6-OHDA in the right Hemisphere. 14 days post-op, treatment with vehicle started. 2 animals were lesioned with 6-OHDA in the right Hemisphere. 14 days post-op, treatment with Dihexa started. Animals were tested every other day. Dosing regimen (2 mg/kg by oral gavage/48 hrs).

[5] = non-saturating doses: HGF 50 ng/ml, Dihexa 10^−12 M
[6] = saturating doses: HGF 100 ng/ml, Dihexa 10^−10 M
[7] = icv, scopolamine 70 nmol, Dihexa 300 pmol, Hinge 300 pmol, vehicle 43.0 s

T1 sequence (P14210 32-728): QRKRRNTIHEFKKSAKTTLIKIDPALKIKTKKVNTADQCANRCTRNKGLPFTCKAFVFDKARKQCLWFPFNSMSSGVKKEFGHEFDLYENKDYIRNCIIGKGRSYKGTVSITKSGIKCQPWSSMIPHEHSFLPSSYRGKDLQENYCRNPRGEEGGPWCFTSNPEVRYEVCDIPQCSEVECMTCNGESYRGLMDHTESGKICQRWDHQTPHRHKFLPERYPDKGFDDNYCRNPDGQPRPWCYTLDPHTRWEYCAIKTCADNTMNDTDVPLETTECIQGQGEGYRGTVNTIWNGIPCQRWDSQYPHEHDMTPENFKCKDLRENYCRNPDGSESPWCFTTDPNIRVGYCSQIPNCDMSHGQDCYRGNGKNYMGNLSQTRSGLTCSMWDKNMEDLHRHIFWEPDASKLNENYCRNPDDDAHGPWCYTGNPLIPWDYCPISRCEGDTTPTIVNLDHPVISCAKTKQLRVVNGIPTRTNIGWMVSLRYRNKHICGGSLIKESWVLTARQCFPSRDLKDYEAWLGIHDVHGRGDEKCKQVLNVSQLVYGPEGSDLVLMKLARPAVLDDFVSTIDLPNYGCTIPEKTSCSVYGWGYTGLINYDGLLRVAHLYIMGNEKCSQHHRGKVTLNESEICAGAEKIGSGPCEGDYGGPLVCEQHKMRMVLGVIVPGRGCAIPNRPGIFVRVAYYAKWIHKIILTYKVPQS

Molecule: HGF: recombinant hepatocyte growth factor (R&D Systems), ligand of c-Met
- c-Met phosphorylation vs control (aCSF) (c-Met receptor; [5]): not statistically different from control treated slices
- c-Met phosphorylation vs control (aCSF) (c-Met receptor; [6]): increased c-Met phosphorylation

Molecule: CCCCCC(=O)N[C@@H](Cc1ccc(O)cc1)C(=O)N[C@H](C(=O)NCCCCCC(N)=O)[C@@H](C)CC [Dihexa, N-hexanoic-Tyr-Ile-(6)-aminohexanoic amide] (Hexanoyl-Tyr-Ile-[Ahx]-NH2)
- protection of neurons from growth factor deprivation (hippocampal neurons [1]): protects neurons from growth factor deprivation
- inhibition of HGF dimerization (HGF): blocks HGF dimerization
- average half-life, Phase I metabolism [2]: 8.49 h
- average intrinsic clearance (Clin) [2]: 2.72 µL/min/mg
- protection of neurons from oxidative stress (hippocampal neurons [3]): protects neurons from oxidative stress
- c-Met phosphorylation vs control (aCSF) (c-Met receptor; [5]): not statistically different from control treated slices
- c-Met phosphorylation vs control (aCSF) (c-Met receptor; [6]): increased c-Met phosphorylation
- concentration of dihexa in brain regions compared to blood ([4]; 3H/14C ratios): all brain regions concentrated dihexa
- average 3H/14C ratio for blood ([4]; 10 μCi 3H-dihexa and 2 μCi 14C-Inulin, n=4): 1687
- stable in the blood (Blood stability studies): over 5 hours
- latency to find the pedestal in the water maze (reversal of scopolamine deficits) (scopolamine treated rats; ICV 10 pmoles (low dose)): but not 10 pmoles
- latency to find the pedestal in the water maze (reversal of scopolamine deficits) (scopolamine treated rats; ICV 100 pmoles (high dose), daily, 8 days): reversed scopolamine-dependent learning deficits; also recorded: completely overcome the scopolamine deficits
- group latency to find the submerged platform (scopolamine treated rats; icv 0.1 nmol after scopolamine, days 5-8): significantly improved performance
- group latency to find the submerged platform (scopolamine treated rats; icv 1 nmol after scopolamine): different from the scopolamine group
- time in the target quadrant, day 9 probe trial (scopolamine treated rats; icv 1 nmol after scopolamine, vs vehicle control): not different
- mean latency to find the pedestal, final day of training (scopolamine treated rats; [7]): 62.3 s
- mean latency to find the pedestal, fourth day of training (scopolamine treated rats; [7]): 63.0 s
- mean latency to find the pedestal, day one of training (scopolamine treated rats; icv, scopolamine 70 nmol, Dihexa 300 pmol, Hinge 300 pmol, vehicle 89.3 s): 115.2 s
- group latency to find the submerged platform (scopolamine treated rats; ip 0.05 mg/kg after scopolamine): not different than the scopolamine group
- group latency to find the submerged platform (scopolamine treated rats; ip 0.25 mg/kg after scopolamine): different than the scopolamine
- group latency to find the submerged platform (scopolamine treated rats; ip 0.50 mg/kg after scopolamine, 0.5 mg/kg): different than the scopolamine; also recorded: not different than the vehicle control group
- time in the target quadrant, day 9 probe trial (scopolamine treated rats; ip delivery, each dose group vs scopolamine→PBS): Each of the treatment groups was different than the scopolamine
- latency to find the pedestal in the water maze (reversal of scopolamine deficits) (scopolamine treated rats; oral 1.25 mg/kg (low dose), days 3-8): partially reversed
- latency to find the pedestal in the water maze (reversal of scopolamine deficits) (scopolamine treated rats; oral 2 mg/kg/day (high dose), 2 mg/kg/day): no different than controls; also recorded: completely overcome the scopolamine deficits; also recorded: completely reversed the scopolamine-dependent learning deficit
- time in the target quadrant, day 9 probe trial (scopolamine treated rats; oral delivery, both dose groups vs scopolamine→PBS): Both of the treatment groups were different than the scopolamine
- performance in the rope hang test (6-OHDA rat; 0.5 mg/kg ip, 2 weeks after 6-OHDA lesion): completely restored the performance
- motor deficits in the 6-OHDA rat (6-OHDA rat; 2 mg/kg by oral gavage/48 hrs, from 14 days post-op): reverses motor deficits
